# Like-named read-outs stand apart in the source and are kept apart here.
# What was measured:
# [1] = test system: Carboxymethylcellulase 5430; assay: Effects of chelating agents, thiol reagents, additives and proteinases on Carboxymethylcellulase 5430; assay type: biochemical, Bacillus sp. PKM-5430; conditions: for Relative activity (%): none = 100; for stimulated the activity of the enzyme by: added at 1 mM
# Procedure: (§1) Activities were determined by the DNS method (J. R. Summer and G. F. Somers, Laboratory Experiments in Biological Chemistry, Academic Press, New York, U.S.A., 1944). Namely, 0.1 ml of a suitably diluted enzyme solution was added to 0.9 ml of a 1.1% (w/v) solution of a CMC (A01MC) substrate in 0.1M glycine-NaOH buffer (pH: 9.0). After a 20-minute reaction at 40° C., 1 ml of 0.05% (w/v) 3,5-dinitrosalicylic acid solution (product of Wako Pure Chemical Industries, Ltd.) was added, and the resulting mixture was immediately placed in a boiling water bath for 5 minutes, followed by cooling in an iced water bath. Then, 4 ml of deionized water was added further, afterwhich, colorimetry was conducted by measuring an absorbance at 535 nm. With respect to enzymatic activity, the amount of enzyme, which liberates reducing sugars corresponding to 1 μmole of glucose for 1 minute, was defined as 1 unit.
# (§2) On the other hand, 2-mercaptoethanol and dithiothreitol, each added at 1 mM, stimulated the activity of the enzyme by 39% and 50%, respectively. It was not observed that the proteinases such as alkalase, maxatase, savinase and Protease API-21 inactivated the enzyme of this invention under this reaction conditions.
# [2] = test system: Carboxymethylcellulase 5812; assay: Effects of chelating agents, thiol reagents, additives and proteinases on Carboxymethylcellulase 5812; assay type: biochemical, Bacillus sp. PKM-5812; conditions: for Relative activity (%): none = 100; for stimulated the activity of the enzyme by: added at 1 mM
# Procedure: as §1
# as §2, with “52%” for “39%”, “84%,” for “50%,”
# [3] = test system: Carboxymethylcellulase 5430; assay: Substrate specificity of Carboxymethylcellulase 5430 (hydrolytic activities, DNS method / p-nitrophenol release); assay type: biochemical, Bacillus sp. PKM-5430
# Procedure: as §1
# (§3) Sodium hydroxide- and phosphoric acid-swollen celluloses were prepared according to the method of Tomita et al. [Y. Tomita, H. Suzuki and K. Nisizawa, J. Biochem., 78, 499(1975)]. The reducing sugar liberated was determined in a similar manner to that of the method (a) except that substrate solutions containing cellulose substrates were used, and the reaction was conducted at 30° C.
# (§4) The reducing sugar liberated was determined in a similar manner to that of the method (a) except that substrate solutions containing polysaccharides were used, and the reaction was conducted at 30° C.
# (§5) A suitably diluted enzyme solution was added to a solution of 8 mM of a PNPG or PNPC substrate in 0.1M phosphate buffer of pH 7.0 to react them for 20 minutes at 30° C. The p-nitrophenol liberated was determined at 400 nm and the amount formed was calculated.
# (§6) The enzyme is also active toward cellobiose, PNPG, PNPC, cellulose powder and phosphoric acid-swollen cellulose.
# [4] = test system: Carboxymethylcellulase 5812; assay: Substrate specificity of Carboxymethylcellulase 5812 (hydrolytic activities, DNS method / p-nitrophenol release); assay type: biochemical, Bacillus sp. PKM-5812
# Procedure: as §1, §3, §4, §5, §6
# [5] = test system: Carboxymethylcellulase 5430; assay: Effects of metal ions on carboxymethylcellulase activity of Carboxymethylcellulase 5430; assay type: biochemical, Bacillus sp. PKM-5430; conditions: for Relative activity (%): 20 minutes at 40° C., pH 9.0, none = 100
# Procedure: as §1
# Among the various metal ions tested, Hg^2+, at 1 mM, inhibited the activity of the enzyme by about 75%. On the contrary, Co^+2, at 1 mM stimulated the activity of the enzyme by about 30% and Mn^+2, at 1 mM, also stimulated the activity by about 50%.
# [6] = test system: Carboxymethylcellulase 5812; assay: Effects of metal ions on carboxymethylcellulase activity of Carboxymethylcellulase 5812; assay type: biochemical, Bacillus sp. PKM-5812; conditions: for Relative activity (%): 20 minutes at 40° C., pH 9.0, none = 100
# Procedure: as §1
# Among the various metal ions tested, Hg^2+, at 1 mM, inhibited the activity of the enzyme by about 75%. On the contrary, Co^+2, at 1 mM stimulated the activity of the enzyme by about 50%, and Mn^+2, at 1 mM, also stimulated the activity by 53%.
# [7] = test system: Carboxymethylcellulase 5430; assay: Effects of surfactants on carboxymethylcellulase activity of Carboxymethylcellulase 5430; assay type: biochemical, Bacillus sp. PKM-5430; conditions: for Relative activity (%): surfactant 0.05%, 20 minutes at 40° C., pH 9.0, none = 100
# Procedure: as §1
# In particular, SDS and the fatty acid salt stimulated the activity of the enzyme by 26% and 45%, respectively.
# [8] = test system: Carboxymethylcellulase 5812; assay: Effects of surfactants on carboxymethylcellulase activity of Carboxymethylcellulase 5812; assay type: biochemical, Bacillus sp. PKM-5812; conditions: for Relative activity (%): surfactant 0.05%, 20 minutes at 40° C., pH 9.0, none = 100
# Procedure: as §1
# In particular, SDS and the fatty acid salt stimulated the activity of the enzyme by 21% and 23%, respectively.
# [9] = test system: Carboxymethylcellulase 5430; assay type: biochemical, Bacillus sp. PKM-5430
# Procedure: as §1
# (§7) However, the activity of the enzyme was not inhibited by the other inhibitors.
# (§8) *: The enzyme was pretreated at pH 5.5 (50 mM acetate buffer).
# [10] = test system: Carboxymethylcellulase 5812; assay type: biochemical, Bacillus sp. PKM-5812
# Procedure: as §1, §7, §8
# [11] = reagent 1 mM, 20 minutes at 40° C., pH 9.0
# [12] = substrate 8 mM, 0.1M phosphate buffer pH 7.0, 30° C., activity toward CMC taken as 100%
# [13] = inhibitor 1.0 mM, 20 minutes at 40° C., pH 9.0, none = 100
# [14] = substrate 0.1%, activity toward CMC at 30° C. taken as 100%
# [15] = metal ion 1 mM, listed as Fe^3+
# [16] = inhibitor 0.1 mM, enzyme pretreated at pH 5.5 (50 mM acetate buffer), none = 100
# [17] = reagent 0.01%, 20 minutes at 40° C., pH 9.0
molecule,measurement,setting,value
c1cnc2c(c1)ccc1cccnc12 [o-Phenanthroline],Relative activity (%),[1]; [11],98%
same,Relative activity (%),[2]; [11],100%
O[C@H](CS)[C@H](O)CS (racemic) [Dithiothreitol],stimulated the activity of the enzyme by,[1],50%
same,Relative activity (%),[1]; [11],150%
same,stimulated the activity of the enzyme by,[2],84%
same,Relative activity (%),[2]; [11],184%
"O=[N+]([O-])c1ccc(O[C@@H]2O[C@H](CO)[C@@H](O)[C@H](O)[C@H]2O)cc1 [PNPG, p-nitrophenyl-β-D-glucopyranoside]",activity of the enzyme toward substrate,[3],active
same,Relative activity (%),[3]; [12],0.8%
same,activity of the enzyme toward substrate,[4],active
same,Relative activity (%),[4]; [12],0.2%
[Hg+2] [Hg^2+],inhibited the activity of the enzyme by,[5]; at 1 mM,about 75%
same,Relative activity (%),[5]; metal ion 1 mM,25%
same,inhibited the activity of the enzyme by,[6]; at 1 mM,about 75%
same,Relative activity (%),[6]; metal ion 1 mM,27%
sodium linear alkylbenzenesulfonate [LAS],effect of surfactants on enzyme activity,[7],either scarcely inhibited or stimulated
same,Relative activity (%),[7],105%
same,effect of surfactants on enzyme activity,[8],either scarcely inhibited or stimulated
same,Relative activity (%),[8],96%
"O=S(=O)(F)Cc1ccccc1 [Phenylmethanesulfonyl fluoride, phenylmethanesulfonyl fluoride]",inhibited the activity of this enzyme by,[9],24%
same,Relative activity (%),[9]; [13],76%
same,Relative activity (%),[10]; [13],107%
OC[C@H]1O[C@@H](O[C@H]2[C@H](O)[C@@H](O)C(O)O[C@@H]2CO)[C@H](O)[C@@H](O)[C@@H]1O (stereo partly shown) [Cellobiose],activity of the enzyme toward substrate,[3],active
same,Relative activity (%),[3]; [14],0.4%
same,activity of the enzyme toward substrate,[4],active
same,Relative activity (%),[4]; [14],0.4%
[K+] [K^+],Relative activity (%),[5]; metal ion 50 mM,116%
same,Relative activity (%),[6]; metal ion 50 mM,126%
[Zn+2] [Zn^2+],Relative activity (%),[5]; metal ion 1 mM,92%
same,Relative activity (%),[6]; metal ion 1 mM,96%
OCCS [2-Mercaptoethanol],stimulated the activity of the enzyme by,[1],39%
same,Relative activity (%),[1]; [11],139%
same,stimulated the activity of the enzyme by,[2],52%
same,Relative activity (%),[2]; [11],152%
[Pb+2] [Pb^2+],Relative activity (%),[5]; metal ion 1 mM,81%
same,Relative activity (%),[6]; metal ion 1 mM,93%
[Cu+2] [Cu^2+],Relative activity (%),[5]; metal ion 1 mM,97%
same,Relative activity (%),[6]; metal ion 1 mM,98%
sodium polyoxyethylene alkyl sulfate [ES],effect of surfactants on enzyme activity,[7],either scarcely inhibited or stimulated
same,Relative activity (%),[7],102%
same,effect of surfactants on enzyme activity,[8],either scarcely inhibited or stimulated
same,Relative activity (%),[8],112%
[Mn+2] [Mn^2+],stimulated the activity of the enzyme by,[5]; at 1 mM,about 50%
same,Relative activity (%),[5]; metal ion 1 mM,130%
same,stimulated the activity of the enzyme by,[6]; at 1 mM,53%
same,Relative activity (%),[6]; metal ion 1 mM,153%
[Fe+2] [Fe^2+],Relative activity (%),[5]; metal ion 1 mM,105%
same,Relative activity (%),[5]; [15],110%
same,Relative activity (%),[6]; metal ion 1 mM,101%
same,Relative activity (%),[6]; [15],104%
O=C(O)CI [Monoiodo acetic acid],Relative activity (%),[9]; pH 9,117%
same,Relative activity (%),[10]; pH 9,104%
Cl.NO [Hydroxylamine hydrochloride],Relative activity (%),[9]; [13],133%
same,Relative activity (%),[10]; [13],123%
"CCCCCCCCCCCCOS(=O)(=O)[O-].[Na+] [SDS, sodium dodecyl sulfate]",effect of surfactants on enzyme activity,[7],either scarcely inhibited or stimulated
same,stimulated the activity of the enzyme by,[7],26%
same,Relative activity (%),[7],126%
same,effect of surfactants on enzyme activity,[8],either scarcely inhibited or stimulated
same,stimulated the activity of the enzyme by,[8],21%
same,Relative activity (%),[8],121%
[Al+3] [Al^3+],Relative activity (%),[5]; metal ion 1 mM,101%
same,Relative activity (%),[6]; metal ion 1 mM,97%
sodium alkyl sulfate [AS],effect of surfactants on enzyme activity,[7],either scarcely inhibited or stimulated
same,Relative activity (%),[7],123%
same,effect of surfactants on enzyme activity,[8],either scarcely inhibited or stimulated
same,Relative activity (%),[8],112%
sodium α-olefin sulfonate [AOS],effect of surfactants on enzyme activity,[7],either scarcely inhibited or stimulated
same,Relative activity (%),[7],107%
same,effect of surfactants on enzyme activity,[8],either scarcely inhibited or stimulated
same,Relative activity (%),[8],105%
O=C(O)c1cc[c]([Hg][Cl])cc1 [4-Chloromercuribenzoic acid],Relative activity (%),[9]; [13],118%
same,Relative activity (%),[10]; [13],105%
O=C(O)CN(CCN(CC(=O)O)CC(=O)O)CC(=O)O [EDTA],effect of chelating agents on enzyme activity,[1],somewhat inhibited
same,Relative activity (%),[1]; [11],71%
same,effect of chelating agents on enzyme activity,[2],somewhat inhibited
same,Relative activity (%),[2]; [11],79%
[N-]=[N+]=[N-] [Sodium azide],Relative activity (%),[9]; [13],118%
same,Relative activity (%),[10]; [13],117%
[Co+2] [Co^2+],stimulated the activity of the enzyme by,[5]; at 1 mM,about 30%
same,Relative activity (%),[5]; metal ion 1 mM,149%
same,stimulated the activity of the enzyme by,[6]; at 1 mM,about 50%
same,Relative activity (%),[6]; metal ion 1 mM,150%
[Na+] [Na^+],Relative activity (%),[5]; metal ion 50 mM,121%
same,Relative activity (%),[6]; metal ion 50 mM,120%
[Mg+2] [Mg^2+],Relative activity (%),[5]; metal ion 1 mM,108%
same,Relative activity (%),[6]; metal ion 1 mM,109%
[Ca+2] [Ca^2+],Relative activity (%),[5]; metal ion 1 mM,108%
same,Relative activity (%),[6]; metal ion 1 mM,108%
sodium α-sulfonated fatty acid ester [α-SFE],effect of surfactants on enzyme activity,[7],either scarcely inhibited or stimulated
same,Relative activity (%),[7],116%
same,effect of surfactants on enzyme activity,[8],either scarcely inhibited or stimulated
same,Relative activity (%),[8],97%
O=C1CCC(=O)N1Br [N-Bromosuccinimide],inhibited the activity of this enzyme by,[9],97%
same,Relative activity (%),[9]; [16],4%
same,inhibited the activity of this enzyme by,[10],97%
same,Relative activity (%),[10]; [16],3%
O=C(O)CN(CCOCCOCCN(CC(=O)O)CC(=O)O)CC(=O)O [EGTA],effect of chelating agents on enzyme activity,[1],somewhat inhibited
same,Relative activity (%),[1]; [11],66%
same,effect of chelating agents on enzyme activity,[2],somewhat inhibited
same,Relative activity (%),[2]; [11],73%
"Alkalase: proteinase (protein, UniProt P00780 106-379, looked up) Subtilisin Carlsberg: AQTVPYGIPLIKADKVQAQGFKGANVKVAVLDTGIQASHPDLNVVGGASFVAGEAYNTDGNGHGTHVAGTVAALDNTTGVLGVAPSVSLYAVKVLNSSGSGSYSGIVSGIEWATTNGMDVINMSLGGASGSTAMKQAVDNAYAKGVVVVAAAGNSGSSGNTNTIGYPAKYDSVIAVGAVDSNSNRASFSSVGAELEVMAPGAGVYSTYPTNTYATLNGTSMASPHVAGAAALILSKHPNLSASQVRNRLSSTATYLGSSFYYGKGLINVEAAAQ",inactivation of the enzyme by proteinases,"[1]; 20 minutes at 40° C., pH 9.0",not observed
same,Relative activity (%),[1]; [17],111%
same,inactivation of the enzyme by proteinases,"[2]; 20 minutes at 40° C., pH 9.0",not observed
same,Relative activity (%),[2]; [17],107%

# From patent US5439816A, “Carboxymethylcellulase isolated from bacillus sp. PKM-5430 (FERM BP-4087)” (Kao Corporation, priority 1991, dated 1995)
